Experimental data: ChEMBL document CHEMBL1201862, “PubChem BioAssay data set” (2004)
Activity calls are given as the source filed them.

How the values were obtained:
[1] = human group III sPLA2 inhibitors, dose response, biochemical, QFRET, IC50 (AID 743457);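 further: green fluorescence rise as the enzyme cleaves BODIPY PC-A2 in liposomes; potency for inhibition of the enzyme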
[2] = inhibitors of intracellular T. cruzi replication, confirmation, NIH3T3 host cells, beta-gal luminescence (AID 2044); format: functional, cell-based;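 further: intracellular parasites grown in NIH/3T3 mouse fibroblasts as host cells; luminescent beta-galactosidase reporter signal from transgenic T. cruzi replicating inside host cells; inhibitors lower the luminescence signal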
[3] = cytotoxicity toward NIH3T3 fibroblasts, dose response, counter-screen, cell-based, ATP luminescence, mouse fibroblasts (AID 2010); format: functional;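 further: cells exposed to compound for about 90 hours before reading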
cells [4] = format: functional, cell-based
[5] = target: T1, Trace amine-associated receptor 1 (Homo sapiens, UniProt Q96RJ0); test: Fluorescence-based cell-based high throughput dose response assay to identify agonists of the human trace amine associated receptor 1 (TAAR1).; format: functional
T1 sequence (Q96RJ0 whole entry): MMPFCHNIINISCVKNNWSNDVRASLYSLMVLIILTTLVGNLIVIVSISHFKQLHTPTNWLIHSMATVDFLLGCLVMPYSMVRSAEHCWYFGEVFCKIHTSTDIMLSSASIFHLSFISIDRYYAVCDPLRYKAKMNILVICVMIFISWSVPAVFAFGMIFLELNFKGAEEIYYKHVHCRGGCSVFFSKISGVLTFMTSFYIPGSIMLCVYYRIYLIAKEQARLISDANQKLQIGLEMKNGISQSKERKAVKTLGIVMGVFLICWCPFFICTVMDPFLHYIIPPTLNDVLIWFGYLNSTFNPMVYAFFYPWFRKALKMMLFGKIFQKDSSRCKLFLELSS

[6] = target: T1, Trace amine-associated receptor 1; test: Counterscreen for agonists of the human trace amine associated receptor 1 (hTAAR1): Fluorescence-based cell-based high throughput dose response assay to identify hTAAR1 agonist that also desensitize TAAR1 receptor response.; format: functional
cells [7] = format: functional, cell-based; remark: listed apart in the source
Albumin = Albumin (Bos taurus, UniProt P02769); test: Counterscreen for inhibitors of T-cell receptor (TCR)-CD3 interaction: Fluorescence-based biochemical high throughput dose response assay to identify inhibitors of T-cell receptor (TCR)-CD3 interaction using a TAMRA-labeled BSA probe.; format: functional
Chain of Albumin (P02769 whole entry): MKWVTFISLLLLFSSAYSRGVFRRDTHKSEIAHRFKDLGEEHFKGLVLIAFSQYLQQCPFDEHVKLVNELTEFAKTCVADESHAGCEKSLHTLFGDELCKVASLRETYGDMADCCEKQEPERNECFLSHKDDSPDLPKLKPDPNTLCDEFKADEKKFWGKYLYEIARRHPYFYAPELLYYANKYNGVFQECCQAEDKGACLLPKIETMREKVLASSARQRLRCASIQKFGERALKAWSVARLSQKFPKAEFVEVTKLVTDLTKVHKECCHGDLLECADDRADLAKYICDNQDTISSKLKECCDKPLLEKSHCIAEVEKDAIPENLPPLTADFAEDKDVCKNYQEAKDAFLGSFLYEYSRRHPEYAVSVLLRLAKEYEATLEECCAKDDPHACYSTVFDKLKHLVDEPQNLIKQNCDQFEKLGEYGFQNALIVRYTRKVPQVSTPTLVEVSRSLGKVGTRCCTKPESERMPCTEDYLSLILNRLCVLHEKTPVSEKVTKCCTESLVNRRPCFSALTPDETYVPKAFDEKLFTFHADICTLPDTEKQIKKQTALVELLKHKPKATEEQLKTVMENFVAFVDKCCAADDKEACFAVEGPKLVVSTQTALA

Aminopeptidase N = target: T2, Aminopeptidase N (Plasmodium falciparum FcB1/Columbia, UniProt O96935); test: P. falciparum M1AAP inhibitors, biochemical, fluorogenic H-Leu-NHMec substrate, 1536-well (AID 1445); parameters: species or system Plasmodium falciparum 3D7, 3D7
T2 sequence (O96935 whole entry): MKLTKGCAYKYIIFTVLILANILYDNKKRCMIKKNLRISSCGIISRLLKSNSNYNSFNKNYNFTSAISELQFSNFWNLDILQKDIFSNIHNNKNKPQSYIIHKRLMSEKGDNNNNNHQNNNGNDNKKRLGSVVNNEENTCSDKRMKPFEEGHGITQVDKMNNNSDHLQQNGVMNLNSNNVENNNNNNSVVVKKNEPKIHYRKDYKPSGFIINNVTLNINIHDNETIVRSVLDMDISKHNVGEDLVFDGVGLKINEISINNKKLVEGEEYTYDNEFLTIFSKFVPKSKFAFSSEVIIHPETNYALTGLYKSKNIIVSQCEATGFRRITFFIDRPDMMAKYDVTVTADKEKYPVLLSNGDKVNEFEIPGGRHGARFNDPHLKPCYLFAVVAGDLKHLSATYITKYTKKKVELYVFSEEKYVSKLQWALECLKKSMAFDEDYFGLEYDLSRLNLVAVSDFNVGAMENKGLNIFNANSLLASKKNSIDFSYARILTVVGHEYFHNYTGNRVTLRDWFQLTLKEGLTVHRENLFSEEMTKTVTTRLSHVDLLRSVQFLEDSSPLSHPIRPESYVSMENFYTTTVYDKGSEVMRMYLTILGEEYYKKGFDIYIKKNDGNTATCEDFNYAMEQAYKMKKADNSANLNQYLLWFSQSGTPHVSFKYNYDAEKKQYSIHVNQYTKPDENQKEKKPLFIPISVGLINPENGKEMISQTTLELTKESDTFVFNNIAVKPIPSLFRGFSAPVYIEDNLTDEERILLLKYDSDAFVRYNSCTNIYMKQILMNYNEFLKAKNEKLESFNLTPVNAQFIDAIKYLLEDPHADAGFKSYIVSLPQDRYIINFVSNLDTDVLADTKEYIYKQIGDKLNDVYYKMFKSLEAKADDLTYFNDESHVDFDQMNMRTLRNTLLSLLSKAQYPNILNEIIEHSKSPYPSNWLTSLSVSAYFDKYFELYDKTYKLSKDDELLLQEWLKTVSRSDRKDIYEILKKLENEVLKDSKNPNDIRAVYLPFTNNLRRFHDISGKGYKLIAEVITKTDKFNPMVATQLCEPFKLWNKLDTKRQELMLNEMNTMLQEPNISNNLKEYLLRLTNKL

[8] = target: T3, Mannose-6-phosphate isomerase (Homo sapiens, UniProt P34949); test: human PMI inhibitors, high substrate, primary screen, biochemical, fluorescence intensity, high mannose 6-phosphate (AID 1220)
T3 sequence (P34949 whole entry): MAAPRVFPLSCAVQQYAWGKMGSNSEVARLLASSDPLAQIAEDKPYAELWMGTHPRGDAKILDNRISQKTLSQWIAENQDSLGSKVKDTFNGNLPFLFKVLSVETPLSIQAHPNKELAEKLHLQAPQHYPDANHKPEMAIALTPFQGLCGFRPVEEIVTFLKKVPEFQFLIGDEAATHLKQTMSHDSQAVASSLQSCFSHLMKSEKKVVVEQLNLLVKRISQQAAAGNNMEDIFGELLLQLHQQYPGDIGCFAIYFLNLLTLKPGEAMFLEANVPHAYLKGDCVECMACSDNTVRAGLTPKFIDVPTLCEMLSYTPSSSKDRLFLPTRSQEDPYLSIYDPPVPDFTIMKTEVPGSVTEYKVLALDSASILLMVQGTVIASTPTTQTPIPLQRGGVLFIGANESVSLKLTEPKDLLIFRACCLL

cells [9] = format: functional
[10] = test system: Streptococcus sp. 'group A'; test: growth inhibition of control SK(-) GAS strain, dose response, counter-screen for streptokinase expression inhibitor project, luminescence, kanamycin, BacTiterGlo, confirmation (AID 1900); format: functional, organism-based
Streptococcus = test: Group A Streptococcus viability loss, dose response, counter-screen for streptokinase expression inhibitor project, luminescence, BacTiterGlo (AID 1915); format: functional, organism-based;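 further: potency for reduction of bacterial viability or growth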

| SMILES | IC50 [1] | IC50 (cells [4]) | EC50 [5] | IC50 [6] | EC50 (cells [7]) | further results |
| --- | --- | --- | --- | --- | --- | --- |
| C=CCNC(S)=NNc1nc(O)c2c(n1)-c1ccccc1CC21CCCCC1 | 73.1 µM (inactive) | – | – | – | – | – |
| Cc1c(Cl)cccc1Nc1nc(NCCO)c2ccccc2n1 | – | > 29.9 µM (inactive) | 2.94 µM (active) | 6.83 µM (active) | > 29.9 µM (inactive) | EC50 [2]: 1.2 µM (active); EC50 [3]: > 60 µM (not active) |
| O=C(CCNC(=O)c1ccc(Br)cc1)NNC(=O)c1ccccc1O | – | – | – | – | – | IC50 (Albumin): > 94.1 µM (inactive) |
| CC(C)c1cc(C(=O)NN=C(S)NCc2ccco2)c(O)c(C(C)C)c1 | 18.8 µM (inactive) | – | – | – | – | – |
| O=c1nc(N2CCCCC2)nc(Nc2ccccc2)[nH]1 | – | – | 3.44 µM (active) | 4.65 µM (active) | – | IC50 (Aminopeptidase N): 51.9 µM (active) |
| COc1ccc(NC(=O)NNC(=O)c2ccc3ccccc3c2O)cc1OC | > 122 µM (inactive) | – | – | – | – | IC50 (Albumin): > 94.1 µM (inactive) |
| Cc1ccc(N2CN(CCc3ccccc3)CN=C2S)cc1 | – | > 29.9 µM (inactive) | 1.16 µM (active) | 7.74 µM (active) | > 29.9 µM (inactive) | – |
| CC1CCCN(CCC(=O)c2ccc(Br)cc2)C1 (configuration not stated) | – | > 29.9 µM (inactive) | 1.67 µM (active) | 20.1 µM (inactive) | > 29.9 µM (inactive) | IC50 [8]: > 50 µM (not active); IC50 (cells [9]): 15.2 µM (active) |
| CN(CCc1ccccc1)Cc1c[nH]c2ccccc12 | – | > 29.9 µM (inactive) | 1.05 µM (active) | 13.2 µM (inactive) | > 29.9 µM (inactive) | – |
| O=C(Cc1nnc(NC(=O)Nc2ccccc2)s1)Nc1ccccc1 | – | > 29.9 µM (inactive) | > 0.0015 µM (active) | > 1.11 µM (active) | > 29.9 µM (inactive) | – |
| Cn1ccc2c(N3CCCCCCC3)cc3c(c21)C1CCC3O1 (configuration not stated) | > 122 µM (inactive) | – | – | – | – | – |
| COc1ccc(-c2cc(C3CCN(CC(O)C(F)(F)F)CC3)[nH]n2)cc1 (configuration not stated) | – | > 29.9 µM (inactive) | 3.52 µM (active) | 7.6 µM (active) | > 29.9 µM (inactive) | – |
| CCCCNC(=S)N/N=C/c1cccc(OCC)c1O | > 122 µM (inactive) | – | – | – | – | – |
| O=C(CP(=O)(c1ccccc1)c1ccccc1)N/N=C/c1cc(Br)cc(Br)c1O | – | – | – | – | – | IC50 (Aminopeptidase N): 12.4 µM (active); EC50 [10]: 800 nM (active); EC50 (Streptococcus): 2.32 µM (active); IC50 (Albumin): > 94.2 µM (inactive) |
